Data on eight compounds can be found in ChEMBL document CHEMBL1201862, “PubChem BioAssay data set” (2004).

The target of test [1] is Ubiquitin carboxyl-terminal hydrolase BAP1 (Homo sapiens, UniProt Q92560). In words: inhibition of BAP1 ubiquitin hydrolase activity – biochemical, dose response (AID 714). In kind it is functional.
Test [2] has as its target NAD-dependent protein deacylase sirtuin-5, mitochondrial (Homo sapiens, UniProt Q9NXA8). In words: sirtuin-5 deacylation blockers, concentration series – biochemical, fluorescence imaging, cherry-pick, set 5, dose response (AID 720591).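 Also: desuccinylation of succinyl peptide AMC substrate read as fluorescence after trypsin release; potency of inhibitors that lower fluorescence and may act on trypsin instead.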
Test [3] concerns the target Kallikrein-7 (Homo sapiens, UniProt P49862). In words: Fluorescence Intensity-based biochemical primary high throughput dose response assay to identify activators of kallikrein-7 (K7) zymogen.
Test [4] deals with T1, Estrogen receptor beta (Homo sapiens, UniProt Q92731).
T1 sequence (Q92731 whole entry): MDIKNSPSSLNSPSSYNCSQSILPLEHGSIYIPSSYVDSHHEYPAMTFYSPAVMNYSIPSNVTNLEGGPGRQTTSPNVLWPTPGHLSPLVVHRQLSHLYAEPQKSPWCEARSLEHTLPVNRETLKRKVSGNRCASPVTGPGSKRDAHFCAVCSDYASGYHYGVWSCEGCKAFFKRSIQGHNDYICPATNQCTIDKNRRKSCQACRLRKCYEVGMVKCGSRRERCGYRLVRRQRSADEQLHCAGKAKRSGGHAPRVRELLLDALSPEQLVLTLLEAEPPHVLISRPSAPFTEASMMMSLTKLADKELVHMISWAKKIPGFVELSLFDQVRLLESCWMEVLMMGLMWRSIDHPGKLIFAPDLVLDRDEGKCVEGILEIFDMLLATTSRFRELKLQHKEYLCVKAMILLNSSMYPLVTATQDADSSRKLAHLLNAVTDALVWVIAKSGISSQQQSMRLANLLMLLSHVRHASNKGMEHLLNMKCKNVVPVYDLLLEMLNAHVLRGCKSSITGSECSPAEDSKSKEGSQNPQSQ
In test [5] the target is T2, Low molecular weight phosphotyrosine protein phosphatase (Homo sapiens, UniProt P24666).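 Also: Dose-response confirmation assay measuring inhibition of LMPTP enzyme activity by fluorescence intensity read-out.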
T2 sequence (P24666 whole entry): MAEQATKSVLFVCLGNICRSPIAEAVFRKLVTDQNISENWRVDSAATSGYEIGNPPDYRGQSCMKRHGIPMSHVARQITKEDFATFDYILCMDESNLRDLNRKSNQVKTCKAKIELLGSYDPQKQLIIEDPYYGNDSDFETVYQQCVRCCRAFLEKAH
The test is classed as functional. As to conditions: read-out: IC50_Mean.

A short description of test [6]: IC50 of Artemis nuclease activity blockers – biochemical, fluorescence intensity, dose response (AID 720701).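 Also: Artemis endonuclease enzyme.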 The test is classed as functional.
Test [7] addresses T3, Polyadenylate-binding protein 1 (Homo sapiens, UniProt P11940). The test can be described thus: MLLE binding blockers, Cy5 peptide tracer – biochemical, fluorescence polarization, Cy5-PAM2 peptide, secondary, miRNA deadenylation inhibitor project, dose response (AID 602260). To be noted: read-out: IC50_Mean. In kind it is functional. For orientation: In fluorescence polarisation assays a small probe gives low polarisation when free and higher when bound to something large.

In test [8] the target is T3, Polyadenylate-binding protein 1. In words: MLLE domain peptide-binding blockers, IC50 – biochemical, fluorescence polarization, FITC-PAM2 peptide, dose response (AID 602259). The test is classed as functional. As to conditions: read-out: IC50_Mean.
Test [9] addresses T1, Estrogen receptor beta. The test can be described thus: blockers of SRC-3 recruitment to ERβ – biochemical, ELISA, streptavidin-HRP readout, orthogonal assay, confirmation (AID 1060). (ELISA stands for enzyme-linked immunosorbent assay.)
The target in test [10] is Genome polyprotein (dengue virus type 2, UniProt P29990). In words: flavivirus cap methylation enzyme inhibition – biochemical, confirmation dose response, primary screen (AID 588689). In kind it is functional.
Chain of Genome polyprotein (P29990 2492-3391 limits assumed): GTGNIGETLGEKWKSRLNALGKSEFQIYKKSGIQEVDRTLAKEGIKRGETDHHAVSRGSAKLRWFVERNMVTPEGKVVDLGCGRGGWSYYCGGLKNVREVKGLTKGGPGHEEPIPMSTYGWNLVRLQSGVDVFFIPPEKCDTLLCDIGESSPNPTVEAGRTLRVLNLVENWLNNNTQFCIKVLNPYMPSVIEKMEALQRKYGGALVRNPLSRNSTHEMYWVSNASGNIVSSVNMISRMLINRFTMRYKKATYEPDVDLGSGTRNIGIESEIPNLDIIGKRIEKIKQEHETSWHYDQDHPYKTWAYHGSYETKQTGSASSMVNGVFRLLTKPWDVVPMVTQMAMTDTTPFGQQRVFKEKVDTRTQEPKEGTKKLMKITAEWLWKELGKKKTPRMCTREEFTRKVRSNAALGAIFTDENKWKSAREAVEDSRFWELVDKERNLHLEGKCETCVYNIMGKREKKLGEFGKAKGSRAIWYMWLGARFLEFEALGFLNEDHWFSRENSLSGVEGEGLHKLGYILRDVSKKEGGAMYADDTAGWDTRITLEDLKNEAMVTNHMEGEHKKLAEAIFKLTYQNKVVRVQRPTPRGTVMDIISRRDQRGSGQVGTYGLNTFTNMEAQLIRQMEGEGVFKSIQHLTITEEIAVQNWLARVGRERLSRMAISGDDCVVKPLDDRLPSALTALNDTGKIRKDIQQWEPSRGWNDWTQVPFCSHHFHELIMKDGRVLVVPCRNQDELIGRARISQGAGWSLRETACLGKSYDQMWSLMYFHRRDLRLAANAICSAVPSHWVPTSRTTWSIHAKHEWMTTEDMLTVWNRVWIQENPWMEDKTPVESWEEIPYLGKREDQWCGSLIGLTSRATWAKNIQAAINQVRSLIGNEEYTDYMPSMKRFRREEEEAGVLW
Test [11] addresses Glutathione-S-transferase (Schistosoma japonicum, UniProt Q26513). In words: GST-antibody interaction or FRET quenching – biochemical, TR-FRET, artefact control for Vif-APOBEC3G degradation inhibitor project, dose response (AID 1117362). The test is classed as functional. On the technique in general: Time-resolved FRET reads energy transfer from a long-lived donor to a nearby acceptor.

The target in test [12] is T4, Zinc finger protein mex-5 (Caenorhabditis elegans, UniProt Q9XUB2).
T4 sequence (Q9XUB2 whole entry): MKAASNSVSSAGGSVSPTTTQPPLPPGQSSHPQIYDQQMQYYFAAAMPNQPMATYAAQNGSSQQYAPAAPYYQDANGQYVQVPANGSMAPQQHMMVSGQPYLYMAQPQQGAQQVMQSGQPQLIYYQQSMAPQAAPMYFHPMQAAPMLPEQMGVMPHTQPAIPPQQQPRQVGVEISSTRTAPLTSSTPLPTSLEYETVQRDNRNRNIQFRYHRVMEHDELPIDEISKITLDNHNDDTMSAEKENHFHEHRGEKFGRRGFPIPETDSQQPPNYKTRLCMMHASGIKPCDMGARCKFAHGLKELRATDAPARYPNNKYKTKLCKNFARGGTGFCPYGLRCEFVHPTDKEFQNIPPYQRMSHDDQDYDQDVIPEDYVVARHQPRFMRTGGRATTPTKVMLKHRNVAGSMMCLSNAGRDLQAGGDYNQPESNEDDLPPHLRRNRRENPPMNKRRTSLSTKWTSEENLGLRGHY
The test can be described thus: potency of MEX-5 RNA-binding blockers – biochemical, C. elegans, fluorescence polarization, dose response (AID 1960).

Test [13] deals with Large T antigen (Simian virus 40, UniProt P03070). The test is classed as functional, Betapolyomavirus macacae.
Chain of Large T antigen (P03070 whole entry): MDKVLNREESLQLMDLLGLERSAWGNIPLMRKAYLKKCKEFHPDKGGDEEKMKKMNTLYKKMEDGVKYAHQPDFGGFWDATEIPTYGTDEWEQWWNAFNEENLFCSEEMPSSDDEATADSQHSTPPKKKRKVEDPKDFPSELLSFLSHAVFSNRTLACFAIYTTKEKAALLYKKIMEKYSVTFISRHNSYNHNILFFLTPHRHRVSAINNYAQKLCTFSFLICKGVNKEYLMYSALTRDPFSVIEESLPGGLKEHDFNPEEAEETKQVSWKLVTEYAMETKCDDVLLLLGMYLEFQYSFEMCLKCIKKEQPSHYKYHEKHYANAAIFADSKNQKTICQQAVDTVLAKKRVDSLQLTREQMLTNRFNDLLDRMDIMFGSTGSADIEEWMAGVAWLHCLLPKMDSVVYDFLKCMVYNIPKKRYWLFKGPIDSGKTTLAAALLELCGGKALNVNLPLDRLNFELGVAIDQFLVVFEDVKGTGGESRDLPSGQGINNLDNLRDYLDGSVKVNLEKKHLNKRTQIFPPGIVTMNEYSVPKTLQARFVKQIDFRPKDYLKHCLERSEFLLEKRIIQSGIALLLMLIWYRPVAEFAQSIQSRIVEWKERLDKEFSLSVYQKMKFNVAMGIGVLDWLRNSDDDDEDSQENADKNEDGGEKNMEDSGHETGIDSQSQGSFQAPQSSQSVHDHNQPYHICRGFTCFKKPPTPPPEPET
For test [14], the target named is T5, Bcl-2-like protein 10 (Homo sapiens, UniProt Q9HD36).
T5 sequence (Q9HD36 whole entry): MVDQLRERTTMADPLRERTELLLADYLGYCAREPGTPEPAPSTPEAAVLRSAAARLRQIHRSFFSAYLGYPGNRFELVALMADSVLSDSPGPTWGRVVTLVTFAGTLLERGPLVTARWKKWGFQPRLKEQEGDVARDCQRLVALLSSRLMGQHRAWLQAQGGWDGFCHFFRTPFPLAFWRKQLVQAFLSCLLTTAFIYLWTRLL
In words: Bcl-B/TR3 peptide binding disruption – biochemical, fluorescence polarization, FITC-TR3 peptide, selectivity assay for Bfl-1 inhibitor project, primary screen (AID 748).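 Also: fluorescence polarization from a fluorescein-labelled TR3 peptide binding purified Bcl-B.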

The target of test [15] is T6, RNA-binding protein pos-1 (Caenorhabditis elegans, UniProt G5EF15).
T6 sequence (G5EF15 whole entry): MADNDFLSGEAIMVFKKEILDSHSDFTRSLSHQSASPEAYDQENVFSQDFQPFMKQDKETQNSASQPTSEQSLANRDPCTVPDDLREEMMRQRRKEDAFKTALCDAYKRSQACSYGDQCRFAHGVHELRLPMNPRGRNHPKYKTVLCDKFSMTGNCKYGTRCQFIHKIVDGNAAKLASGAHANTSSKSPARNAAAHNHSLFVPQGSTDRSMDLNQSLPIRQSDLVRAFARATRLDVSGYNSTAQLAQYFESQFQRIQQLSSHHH
The test can be described thus: disruptors of C. elegans POS-1 RNA interaction – biochemical, fluorescence polarization, dose response (AID 1964).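 Also: purified POS-1 fused to maltose binding protein made in E. coli; potency of compounds blocking POS-1 binding to fluorescent RNA.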

Test [16] deals with Streptococcus. In words: GAS UMAA2166 growth inhibition – luminescence, BacTiterGlo, counter-screen for streptokinase expression inhibitor project, dose response (AID 1915).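 Also: potency for reduction of bacterial viability or growth.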 The test is classed as functional, organism-based.
Test [17] has as its system Streptococcus sp. 'group A'. The test can be described thus: Streptococcus pyogenes SK(-)GAS viability under kanamycin – luminescence, BacTiterGlo, confirmation, counter-screen for streptokinase expression inhibitor project, dose response (AID 1900). The test is classed as functional, organism-based.
Test [18] can be described thus: viability loss in Vero cells – cytotoxicity control for Vif-APOBEC3G degradation inhibitor project, dose response (AID 1117358). In kind it is functional. To be noted: Vero.
Test [19] can be described thus: Trypanosoma cruzi growth suppression in host cells – NIH3T3 host cells, beta-gal luminescence, confirmation (AID 2044).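 Also: intracellular parasites grown in NIH/3T3 mouse fibroblasts as host cells; luminescent beta-galactosidase reporter signal from transgenic T. cruzi replicating inside host cells; inhibitors lower the luminescence signal.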 The test is classed as functional, cell-based.
A short description of test [20]: NIH3T3 cell viability loss – ATP luminescence, mouse fibroblasts, counter-screen, dose response (AID 2010).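 Also: cells exposed to compound for about 90 hours before reading.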 The test is classed as functional, cell-based.
The target of test [21] is E3 ubiquitin-protein ligase Mdm2 (Homo sapiens, UniProt Q00987). The test can be described thus: MDM2-luc reporter signal enhancers, multi-concentration potency testing, MDM2 ubiquitin-protein ligase inhibitor program, whole-cell format, luminescence detection, 384-well microplate (AID 1394).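 Also: MDM2 E3 inhibitors raise luminescence so EC50 is for signal enhancement.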 In kind it is functional.
Chain of E3 ubiquitin-protein ligase Mdm2 (Q00987 whole entry): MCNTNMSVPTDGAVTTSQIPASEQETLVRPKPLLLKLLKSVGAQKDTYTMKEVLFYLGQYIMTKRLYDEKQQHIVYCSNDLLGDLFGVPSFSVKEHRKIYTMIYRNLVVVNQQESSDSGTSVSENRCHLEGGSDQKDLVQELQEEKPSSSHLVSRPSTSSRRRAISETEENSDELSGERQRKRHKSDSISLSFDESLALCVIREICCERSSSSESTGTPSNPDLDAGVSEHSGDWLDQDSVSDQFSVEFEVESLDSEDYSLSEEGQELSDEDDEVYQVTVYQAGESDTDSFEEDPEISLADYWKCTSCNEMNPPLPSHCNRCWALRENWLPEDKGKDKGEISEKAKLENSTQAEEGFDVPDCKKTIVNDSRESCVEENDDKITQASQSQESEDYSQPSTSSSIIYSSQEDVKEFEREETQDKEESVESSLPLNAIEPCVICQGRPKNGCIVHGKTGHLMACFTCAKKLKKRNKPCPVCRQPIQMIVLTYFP

SMILES strings stand for the structures. Activity calls are given as the source filed them.

T3 sequence (P11940 whole entry): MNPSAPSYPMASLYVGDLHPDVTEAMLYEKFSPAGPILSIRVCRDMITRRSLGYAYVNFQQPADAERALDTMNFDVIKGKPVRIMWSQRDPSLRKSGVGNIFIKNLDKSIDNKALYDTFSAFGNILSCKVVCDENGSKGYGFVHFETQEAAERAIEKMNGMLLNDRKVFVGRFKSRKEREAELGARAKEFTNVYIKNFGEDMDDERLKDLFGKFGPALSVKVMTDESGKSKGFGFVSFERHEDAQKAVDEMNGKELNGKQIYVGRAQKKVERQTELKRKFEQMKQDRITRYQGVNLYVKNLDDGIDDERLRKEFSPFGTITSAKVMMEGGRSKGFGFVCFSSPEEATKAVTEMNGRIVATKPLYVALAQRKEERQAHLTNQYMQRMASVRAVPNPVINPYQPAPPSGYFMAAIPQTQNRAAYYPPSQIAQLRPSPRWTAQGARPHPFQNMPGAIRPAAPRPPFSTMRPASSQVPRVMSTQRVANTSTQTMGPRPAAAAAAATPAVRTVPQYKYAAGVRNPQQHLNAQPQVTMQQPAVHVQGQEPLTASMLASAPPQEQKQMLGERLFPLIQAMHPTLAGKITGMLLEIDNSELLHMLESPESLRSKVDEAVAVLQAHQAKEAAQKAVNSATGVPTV
Chain of Glutathione-S-transferase (Q26513 whole entry): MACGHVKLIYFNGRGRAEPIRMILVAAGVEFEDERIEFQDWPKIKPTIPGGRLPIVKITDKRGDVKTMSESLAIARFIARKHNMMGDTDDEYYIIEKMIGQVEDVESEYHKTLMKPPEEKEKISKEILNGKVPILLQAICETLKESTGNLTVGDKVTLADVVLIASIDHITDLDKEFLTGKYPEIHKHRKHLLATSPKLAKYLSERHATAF
Chain of NAD-dependent protein deacylase sirtuin-5, mitochondrial (Q9NXA8 whole entry): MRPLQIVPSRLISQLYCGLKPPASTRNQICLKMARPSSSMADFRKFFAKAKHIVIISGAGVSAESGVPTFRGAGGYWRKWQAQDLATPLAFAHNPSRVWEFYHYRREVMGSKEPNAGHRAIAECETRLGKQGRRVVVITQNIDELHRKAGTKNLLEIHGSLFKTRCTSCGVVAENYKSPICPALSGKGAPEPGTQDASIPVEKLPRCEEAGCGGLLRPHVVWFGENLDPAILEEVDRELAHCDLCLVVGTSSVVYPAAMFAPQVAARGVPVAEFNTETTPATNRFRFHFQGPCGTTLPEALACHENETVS
Chain of Ubiquitin carboxyl-terminal hydrolase BAP1 (Q92560 whole entry): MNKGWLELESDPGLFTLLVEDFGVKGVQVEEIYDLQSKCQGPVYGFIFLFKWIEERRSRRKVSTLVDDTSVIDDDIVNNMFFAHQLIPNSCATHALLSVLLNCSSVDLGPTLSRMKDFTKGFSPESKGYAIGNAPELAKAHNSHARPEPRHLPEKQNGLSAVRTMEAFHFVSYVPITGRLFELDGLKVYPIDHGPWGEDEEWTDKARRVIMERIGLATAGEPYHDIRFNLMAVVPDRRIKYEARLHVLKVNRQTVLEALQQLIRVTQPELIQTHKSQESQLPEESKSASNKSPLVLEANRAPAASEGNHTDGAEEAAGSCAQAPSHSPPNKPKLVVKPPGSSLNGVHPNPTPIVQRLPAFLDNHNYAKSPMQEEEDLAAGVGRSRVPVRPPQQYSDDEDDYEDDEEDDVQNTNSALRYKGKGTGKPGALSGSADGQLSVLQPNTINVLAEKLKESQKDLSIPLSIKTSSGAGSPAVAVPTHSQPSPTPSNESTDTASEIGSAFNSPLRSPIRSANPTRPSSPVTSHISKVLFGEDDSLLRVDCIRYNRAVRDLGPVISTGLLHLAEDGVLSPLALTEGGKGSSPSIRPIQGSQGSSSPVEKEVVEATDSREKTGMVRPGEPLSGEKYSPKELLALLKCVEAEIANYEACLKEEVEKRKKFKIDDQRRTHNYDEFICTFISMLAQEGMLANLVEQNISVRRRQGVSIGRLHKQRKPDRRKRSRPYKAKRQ
Chain of Kallikrein-7 (P49862 whole entry): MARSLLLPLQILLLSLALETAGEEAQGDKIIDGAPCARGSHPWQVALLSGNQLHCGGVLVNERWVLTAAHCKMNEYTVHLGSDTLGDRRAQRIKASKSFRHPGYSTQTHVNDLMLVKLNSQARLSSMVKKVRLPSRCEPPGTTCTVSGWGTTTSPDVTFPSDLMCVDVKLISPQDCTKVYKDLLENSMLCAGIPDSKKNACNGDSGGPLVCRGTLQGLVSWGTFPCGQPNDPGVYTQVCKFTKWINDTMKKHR

As for `Nc1nn(S(=O)(=O)c2cccc3nsnc23)cc1-c1ccc(Br)cc1`, the IC50 in [1] was > 50 µM (not active).
What is called AC50 is the concentration at which the activity in the assay is half-maximal. For the compound `O=C(Cc1nnc(NC(=O)Nc2ccc(Cl)cc2)s1)NCc1ccccc1`, the AC50 in test [2] is > 30 µM (inactive).
For orientation: EC50 means the midpoint of the concentration-response curve. On to `COc1ccc(NC(=O)c2cc(-c3ccco3)on2)cc1OC`, for which, in [3], the EC50 is 13.1 µM (inactive).
For the compound `CC(C)COC(=O)c1nnsc1NC(=O)Nc1ccccc1`, the IC50 in test [4] is reported as > 50 µM (not active).
As for `O=C1CC(c2ccco2)Cc2nc(Nc3nc(-c4ccccc4)c4ccccc4n3)ncc21` (stereo unspecified), the IC50 in test [5] was 10.9 µM (active); in test [6] it was > 20 µM (inactive).
For the compound `O=c1oc2c3c4c(cc2s1)CCCN4CCC3`, the IC50 in test [7] is > 66 µM (inactive); in test [8], 48 µM (inactive); in test [9] it was > 50 µM (not active); in [10], 86.7 µM (active); in [11], 66.2 µM (active); in [13], 17.9 µM (active). In addition, in [14], the IC50 is 10.4 µM (active). For the same compound, the EC50 in test [12] is 24.1 µM (inconclusive); in test [15] it was 28.1 µM (active).
For orientation: CC50 means the concentration at which the toxic effect on the cells reaches its halfway point. With `O=C(Nc1nnc(C2CC2)o1)c1ccc(S(=O)(=O)N2CCCc3ccccc32)cc1`, the concentration giving a half-maximal response (EC50) in test [16] was 4 µM (active); in test [17] it was 2.46 µM (active); in [19], 1.4 µM (active); in [20] it was 5.11 µM (active). Also, the half-maximal cytotoxic concentration (CC50) in test [18] is 15.1 µM (active).
For `COc1ccc(C(=O)NCCSC2CCCCC2)cc1`, the EC50 in [21] was 13.6 µM (not active).
